# From patent EP1889615A2, “Formulations for oral administration with a health promoting effect on the osteoarticular and muscleskeleton apparatus” (ROTTAPHARM S.P.A., priority 2006, dated 2008)
# pEC50, pIC50: −log10 of the molar value.
# Columns and labels:
# IL-1 = experiment: Human blood: LPS stimulated production (expression) of IL-1; format: cell-based
# Description: (§1) 200 µl samples have been stimulated with 1 µg/ml of LPS for 24 hours at 37°C [Hartel et al. 2004], in the presence of the test products. The cytokines released into the plasma have been analysed using a multiple system for cytokines (Bio-Plex, Bio-Rad Laboratories, Milan, Italy) allowing the simultaneous determination of IL-1, TNFα and IL-10.
# TNFα = experiment: Human blood: LPS stimulated production (expression) of TNFα; format: cell-based
# Description: as §1
# IL-10 = experiment: Human blood: LPS stimulated production (expression) of IL-10; format: cell-based
# Description: Venous blood has been collected from healthy volunteers and treated with 0.38% Na citrate in order to prevent coagulation. 200 µl samples have been stimulated with 1 µg/ml of LPS for 24 hours at 37°C [Hartel et al. 2004], in the presence of the test products. The cytokines released into the plasma have been analysed using a multiple system for cytokines (Bio-Plex, Bio-Rad Laboratories, Milan, Italy) allowing the simultaneous determination of IL-1, TNFα and IL-10.
# TXB2 = experiment: Human blood: coagulation-induced thromboxane (TXB2) production, marker of platelet COX-1 activity; format: cell-based; conditions: for %Diff. vs control: TXB2
# Description: The test products have been added to samples of human blood, collected from healthy volunteers, and then said samples allowed to coagulate by leaving to stand for 1 hour at 37°C. The thromboxane (TXB2) in the serum, a marker of platelet COX-1 activity (Panara et al. 1999], has been determined using a specific RIA method.
# PGE2 = experiment: Human blood: production of PGE2 stimulated by 100 µg/ml LPS, marker of monocyte COX-2 activity; format: cell-based
# Description: Human blood has been collected from health volunteers and made uncoagulable with 0.38% Na citrate. The test products have been added to 200 µl samples and then said samples stimulated with 100 µg/ml of LPS for 24 hours at 37°C. The PGE2 in the plasma, a marker of monocyte COX-2 activity [Panara et al. 1999], has been determined using a specific RIA method.
# [1] = tested on: zymosan-induced rat paw oedema; experiment: Rat: anti-inflammatory activity on zymosan-induced paw oedema; format: in vivo; conditions: for % Diff. vs. control / Diff. vs. control: oedema; for % Diff. vs. control / Diff. vs. control / Oedema: oral; for Oedema: area under curve 0-24 h
# Description: The anti-inflammatory activities of the test products have been assessed according to Di Rosa et al. [1971] on rat paw oedema induced by a subplantar injection of 4 mg di zymosan in 0.1 ml of isotonic saline. Paw volume has been measured pletismographically at 0, 1, 2, 4, 6 and 24 hours following the injection of zymosan, and expressed in ml of difference, with respect to the baseline volume. The test products, suspended in 5 ml/kg of 5% methylcellulose, have been administered with a gastric probe 30 minutes prior to the injection of zymosan. Celecoxib, a known COX-2 inhibitor, widely used clinically, and administered orally at a dose of 10 mg/kg, has been used as a reference standard. In order to express the treatment effects numerically, the areas under the curves of paw volume increase from 0 to 24 hours have been measured, thus giving the measurement of paw oedema in mlx24 hours.
# [2] = tested on: zymosan-induced rat paw hyperalgesia; experiment: Rat: analgesic activity (Randall and Selitto) on zymosan-induced paw hyperalgesia; format: in vivo; conditions: for % Diff. vs. control: analgesia; for % Diff. vs. control / Diff. vs. control / Analgesia: oral; for Diff. vs. control: difference of the Analgesia Δgx24h values; for Analgesia: area under analgesimetric curve 0-24 h
# Description: The analgesic activities of the test products have been evaluated using the technique of Randall and Selitto [1957] on hyperalgesia induced in rat paw by a subplantar injection of 4 mg di zymosan in 0.1 ml of isotonic saline. The mechanical nociceptive threshold has been determined using an analgesimeter (Ugo Basile, Varese, Italy) at 0, 1, 2, 4, 6 and 24 hours following the injection of zymosan. The analgesimeter measures the weight (in grams) applied to the paw which causes the reflex retraction of the paw itself. The nociceptive threshold has been expressed as the difference (in grams) in nociceptive threshold at time 0. The test products have been administered orally 30 minutes prior to the injection of zymosan. Celecoxib, a known COX-2 inhibitor, widely used clinically as an analgesic-anti-inflammatory, and administered orally at a dose of 10 mg/kg, has been used as a reference standard. In order to express the treatment effects numerically, the areas under the curves of the analgesimetric weight increase on the inflamed paw have been measured from 0 to 24 hours, thus giving the measurement in g x 24 hours of the area under the analgesimetric curve.
# [3] = tested on: tibial joint cartilage explants; experiment: Rabbit cartilage explants: protection against IL-1β-induced cartilage degradation (GAG release); conditions: for %Diff. vs baseline: GAG release, protection positive
# Description: The explants (2 x 2 mm) have been transferred to plates with wells and equilibrated for 48 hours at 37°C with high glucose DMEM plus 10% FCS and 50 µg/ml gentamycin. Explants have then been stimulated for 48 hours with 1 ng/ml IL-1β in aphenolic DMEM, 1 g/l glucose, 50 µg/ml gentamycin and 1% BSA. IL-1β elicits strong activation of the enzymes which depolymerise the proteoglycan aggregates of the cartilage matrix, resulting in its degradation, with the release of the breakdown products, mainly represented by the various glycosaminoglycans (GAG) making up the proteoglycan aggregates, into the culture liquid. […] In order to assess the effects of the test products on IL-1β-induced cartilage degradation, they have been added to the cartilage explants 20 minutes prior to stimulation with IL-1β. Cartilage degradation has been assessed by expressing the GAG released into the culture liquid as a percentage of the total GAG measured following complete digestion of the cartilage explants using papain.
# [4] = 30 µM (Man, ASS as mangostin; ASS 30 = Man 30 + CGS 300)
# [5] = 10 µM (Man, ASS as mangostin; ASS 10 = Man 10 + CGS 100)
# [6] = oral doses of 40, 133 and 400 mg/kg
# [7] = 1 µM (Man, ASS as mangostin; ASS 1 = Man 1 + CGS 10)
compound,measurement,setting,value
"N[C@H]1C(O)O[C@H](CO)[C@@H](O)[C@@H]1O.N[C@H]1C(O)O[C@H](CO)[C@@H](O)[C@@H]1O.O=S(=O)(O)O.[Cl-].[Cl-].[Na+].[Na+] (stereo partly drawn) [CGS, Crystalline Glucosamine Sulphate]",IL-1,IL-1; [4],4.65 ng/mL
same,IL-1,IL-1; 100 µM,4.72 ng/mL
same,IL-1,IL-1; 300 µM,4.69 ng/mL
same,%Diff. vs control,"IL-1; IL-1, 30 µM (Man, ASS as mangostin; ASS 30 = Man 30 + CGS 300)",2.1%
same,%Diff. vs control,"IL-1; IL-1, 100 µM",3.6%
same,%Diff. vs control,"IL-1; IL-1, 300 µM",3.1%
same,inhibitory activity,"IL-1; IL-1, up to a concentration of 300 µM",no appreciable inhibitory activity
same,TNFα,TNFα; [4],14.70 ng/mL
same,TNFα,TNFα; 100 µM,13.80 ng/mL
same,TNFα,TNFα; 300 µM,12.70 ng/mL
same,%Diff. vs control,"TNFα; TNFα, 30 µM (Man, ASS as mangostin; ASS 30 = Man 30 + CGS 300)",-7.9%
same,%Diff. vs control,"TNFα; TNFα, 100 µM",-13.5%
same,%Diff. vs control,"TNFα; TNFα, 300 µM",-20.4%
same,pIC50,"TNFα; TNFα, Man/Eman and ASS as mangostin concentration",< 3.52
same,inhibitory activity,"TNFα; TNFα, even at concentrations of 300 µM",weakly inhibitory
same,IL-10,IL-10; [4],0.25 ng/mL
same,IL-10,IL-10; 100 µM,0.26 ng/mL
same,IL-10,IL-10; 300 µM,0.27 ng/mL
same,%Diff. vs control,"IL-10; IL-10 (increase positive), 30 µM (Man, ASS as mangostin; ASS 30 = Man 30 + CGS 300)",-3.5%
same,%Diff. vs control,"IL-10; IL-10, 100 µM",1.6%
same,%Diff. vs control,"IL-10; IL-10, 300 µM",6.3%
same,stimulatory or inhibitory activity,"IL-10; IL-10, concentrations tested 30, 100 and 300 µM",no significant stimulatory or inhibitory activity
same,TXB2,TXB2; [5],124 ng/mL
same,TXB2,TXB2; 30 µM,118 ng/mL
same,TXB2,TXB2; 100 µM,125 ng/mL
same,effect on the release of TXB2,"TXB2; Man 1, 3, 10, CGS 10, 30, 100 µM, Ass 1, 3, 10",no significant stimulatory or inhibitory activity
same,%Diff. vs control,TXB2; [5],3.3%
same,%Diff. vs control,TXB2; 30 µM,-1.7%
same,%Diff. vs control,TXB2; 100 µM,4.2%
same,PGE2,PGE2; [5],22.7 ng/mL
same,PGE2,PGE2; 30 µM (ASS as mangostin; ASS 30 = Man 30 + CGS 300),24.3 ng/mL
same,PGE2,PGE2; 100 µM,23.5 ng/mL
same,%Diff. vs control,"PGE2; PGE2, 10 µM (Man, ASS as mangostin; ASS 10 = Man 10 + CGS 100)",-7.3%
same,%Diff. vs control,"PGE2; PGE2, 30 µM (ASS as mangostin; ASS 30 = Man 30 + CGS 300)",-0.8%
same,%Diff. vs control,"PGE2; PGE2, 100 µM",-4.1%
same,stimulatory or inhibitory activity,"PGE2; PGE2, concentrations of 10, 30 or 100 µM",no significant stimulatory or inhibitory activity
same,% Diff. vs. control,[1]; 40 mg/kg,-1%
same,Diff. vs. control,[1]; 40 mg/kg,-0.1 mlx24 hours
same,% Diff. vs. control,[1]; 133 mg/kg,-2%
same,Diff. vs. control,[1]; 133 mg/kg,-0.3 mlx24 hours
same,% Diff. vs. control,[1]; 400 mg/kg,-4%
same,Diff. vs. control,[1]; 400 mg/kg,-0.6 mlx24 hours
same,anti-inflammatory activity,[1]; [6],no significant anti-inflammatory activity
same,Oedema,[1]; 40 mg/kg,15.6 Δmlx24h
same,Oedema,[1]; 133 mg/kg,15.4 Δmlx24h
same,Oedema,[1]; 400 mg/kg,15.2 Δmlx24h
same,% Diff. vs. control,[2]; 40 mg/kg,1%
same,% Diff. vs. control,[2]; 133 mg/kg,-6%
same,% Diff. vs. control,[2]; 400 mg/kg,-4%
same,Diff. vs. control,[2]; 40 mg/kg,7
same,Diff. vs. control,[2]; 133 mg/kg,-59
same,Diff. vs. control,[2]; 400 mg/kg,-46
same,analgesic activity,[2]; [6],no significant analgesic activity
same,Analgesia,[2]; 40 mg/kg,1079 Δgx24h
same,Analgesia,[2]; 133 mg/kg,1012 Δgx24h
same,Analgesia,[2]; 400 mg/kg,1026 Δgx24h
same,protection against IL-1β-induced cartilage degradation,[3]; 1 µM,41%
same,%GAG released,[3]; [7],41%
same,%GAG released,[3]; 3 µM,25%
same,%GAG released,[3]; 10 µM,16%
same,protection against IL-1β-induced cartilage degradation,[3]; 3 mM CGS,64%
same,protection against IL-1β-induced cartilage degradation,[3]; 10 mM CGS,77%
same,%Diff. vs baseline,[3]; [7],40.6%
same,%Diff. vs baseline,[3]; 3 µM,63.8%
same,%Diff. vs baseline,[3]; 10 µM,76.8%
same,pEC50,"[3]; read-out: PC50, 50% protective concentration, ASS with reference to CGS",5.64
